Assay results as given in patent US20080051429A1, “USE OF 4-AMINO-PIPERIDINES FOR TREATING SLEEP DISORDERS” (priority 2006, published 2008).

Key:
Experiment in all cases: R-SAT broad profiling
Assay type in all cases: cell-based
m1 = biological target: T1, m1 (Homo sapiens, UniProt P11229); settings: agonist; read-out: pEC50 or pIC50 (converted)
T1 construct: expressed in transfected cells; host or cells: NIH3T3
T1 sequence (P11229 1-460): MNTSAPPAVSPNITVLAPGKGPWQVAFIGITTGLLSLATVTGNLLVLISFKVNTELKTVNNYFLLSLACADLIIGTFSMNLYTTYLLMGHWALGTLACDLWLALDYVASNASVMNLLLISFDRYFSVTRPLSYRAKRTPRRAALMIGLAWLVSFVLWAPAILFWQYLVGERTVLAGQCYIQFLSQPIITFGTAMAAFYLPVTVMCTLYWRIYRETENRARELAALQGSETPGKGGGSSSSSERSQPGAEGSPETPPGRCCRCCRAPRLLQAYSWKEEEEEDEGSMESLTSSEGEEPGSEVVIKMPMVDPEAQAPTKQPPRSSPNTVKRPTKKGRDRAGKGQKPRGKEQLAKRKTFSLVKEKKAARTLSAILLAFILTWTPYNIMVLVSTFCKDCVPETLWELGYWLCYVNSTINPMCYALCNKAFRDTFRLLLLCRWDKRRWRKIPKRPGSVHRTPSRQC
Description: (§1) The functional receptor assay, Receptor Selection and Amplification Technology (R-SAT), was used (with minor modifications from that previously described U.S. Pat. No. 5,707,798) to screen compounds for efficacy at the 5-HT2A receptor. Briefly, NIH3T3 cells were grown in 96 well tissue culture plates to 70-80% confluence. Cells were transfected for 12-16 hours with plasmid DNAs using superfect (Qiagen Inc.) as per manufacture's protocols. R-SAT's were generally performed with 50 ng/well of receptor and 20 ng/well of Beta-galactosidase plasmid DNA. All receptor and G-protein constructs used were in the pSI mammalian expression vector (Promega Inc) as described in U.S. Pat. No. 5,707,798. The 5HT2A receptor gene was amplified by nested PCR from brain cDNA using the oligodeoxynucleotides based on the published sequence (see Saltzman et. al. Biochem. Biophys. Res. Comm. 181:1469-78 (1991)). Large-scale transfections, cells were transfected for 12-16 hours, then trypsinized and frozen in DMSO. Frozen cells were later thawed, plated at 10,000-40,000 cells per well of a 96 well plate that contained drug. With both methods, cells were then grown in a humidified atmosphere with 5% ambient CO2 for five days. Media was then removed from the plates and marker gene activity was measured by the addition of the beta-galactosidase substrate ONPG (in PBS with 5% NP-40). The resulting colorimetric reaction was measured in a spectrophotometric plate reader (Titertek Inc.)at […]. All data were analyzed using the computer program XLFit (IDBSm). Efficacy is the percent maximal repression compared to repression by a control compound (ritanserin in the case of 5HT2A). pIC50 is the negative of the log(IC50), where IC50 is the calculated concentration in Molar that produces 50% maximal repression.
(§2) The R-SAT assay (described above in example 289) was used to investigate the selectivity of 4-(4-Fluoro-benzyl)-3-(4-isobutoxy-benzyl)-8-methyl-1-oxa-3,8-diaza-spiro[4.5]decan-2-one.

alpha 2B = biological target: T2, alpha 2B (Homo sapiens, UniProt P18089); settings: read-out: pEC50 or pIC50 (converted)
T2 construct: expressed in transfected cells; host or cells: NIH3T3
T2 sequence (P18089 1-450): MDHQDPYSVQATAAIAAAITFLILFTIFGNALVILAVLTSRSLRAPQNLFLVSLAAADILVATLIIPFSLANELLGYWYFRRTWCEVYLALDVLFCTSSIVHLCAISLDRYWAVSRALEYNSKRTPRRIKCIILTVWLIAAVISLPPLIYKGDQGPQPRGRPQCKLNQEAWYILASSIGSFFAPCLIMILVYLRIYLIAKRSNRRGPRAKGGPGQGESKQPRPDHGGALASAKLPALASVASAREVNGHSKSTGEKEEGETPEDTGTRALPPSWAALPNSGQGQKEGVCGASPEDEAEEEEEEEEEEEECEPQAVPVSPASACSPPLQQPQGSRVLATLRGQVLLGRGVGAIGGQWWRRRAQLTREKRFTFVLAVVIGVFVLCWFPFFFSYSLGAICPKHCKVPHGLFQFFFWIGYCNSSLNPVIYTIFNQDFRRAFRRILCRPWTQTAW
Description: as §1, §2

m3 = biological target: T3, m3 (Homo sapiens, UniProt P20309); settings: read-out: pEC50 or pIC50 (converted)
T3 construct: expressed in transfected cells; host or cells: NIH3T3
Description: as §1, §2

oprk 1 = biological target: T4, oprk 1 (Homo sapiens, UniProt P41145); settings: read-out: pEC50 or pIC50 (converted)
T4 construct: expressed in transfected cells; host or cells: NIH3T3
Description: as §1, §2

m2 = biological target: T5, m2 (Homo sapiens, UniProt P08172); settings: agonist; read-out: pEC50 or pIC50 (converted)
T5 construct: expressed in transfected cells; host or cells: NIH3T3
T5 sequence (P08172 1-466): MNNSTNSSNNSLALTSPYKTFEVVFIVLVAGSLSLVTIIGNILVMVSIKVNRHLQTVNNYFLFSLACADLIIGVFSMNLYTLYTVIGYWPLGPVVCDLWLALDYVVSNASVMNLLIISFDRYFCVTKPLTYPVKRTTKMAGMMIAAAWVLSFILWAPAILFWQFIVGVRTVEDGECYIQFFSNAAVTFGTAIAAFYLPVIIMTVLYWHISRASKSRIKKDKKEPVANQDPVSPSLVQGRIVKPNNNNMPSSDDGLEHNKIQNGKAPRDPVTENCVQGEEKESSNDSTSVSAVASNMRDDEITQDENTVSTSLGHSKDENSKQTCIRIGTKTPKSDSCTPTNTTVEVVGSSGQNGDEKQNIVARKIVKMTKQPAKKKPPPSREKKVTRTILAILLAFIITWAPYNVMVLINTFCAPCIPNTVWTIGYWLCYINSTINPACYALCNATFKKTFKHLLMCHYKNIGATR
Description: as §1, §2

alpha 2C = biological target: T6, alpha 2C (Homo sapiens, UniProt P18825); settings: read-out: pEC50 or pIC50 (converted)
T6 construct: expressed in transfected cells; host or cells: NIH3T3
T6 sequence (P18825 1-462): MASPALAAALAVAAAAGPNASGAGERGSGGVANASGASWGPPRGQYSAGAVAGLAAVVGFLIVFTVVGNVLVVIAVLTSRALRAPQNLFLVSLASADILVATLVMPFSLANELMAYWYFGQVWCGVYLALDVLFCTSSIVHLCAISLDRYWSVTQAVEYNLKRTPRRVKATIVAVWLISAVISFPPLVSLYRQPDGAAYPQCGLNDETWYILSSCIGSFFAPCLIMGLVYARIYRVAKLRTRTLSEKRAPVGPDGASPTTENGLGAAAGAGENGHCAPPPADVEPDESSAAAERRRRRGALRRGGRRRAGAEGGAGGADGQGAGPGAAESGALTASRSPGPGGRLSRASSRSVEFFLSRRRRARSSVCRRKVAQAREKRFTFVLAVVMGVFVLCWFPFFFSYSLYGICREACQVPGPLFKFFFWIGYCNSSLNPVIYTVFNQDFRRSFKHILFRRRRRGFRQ
Description: as §1, §2

T3 sequence (P20309 whole entry): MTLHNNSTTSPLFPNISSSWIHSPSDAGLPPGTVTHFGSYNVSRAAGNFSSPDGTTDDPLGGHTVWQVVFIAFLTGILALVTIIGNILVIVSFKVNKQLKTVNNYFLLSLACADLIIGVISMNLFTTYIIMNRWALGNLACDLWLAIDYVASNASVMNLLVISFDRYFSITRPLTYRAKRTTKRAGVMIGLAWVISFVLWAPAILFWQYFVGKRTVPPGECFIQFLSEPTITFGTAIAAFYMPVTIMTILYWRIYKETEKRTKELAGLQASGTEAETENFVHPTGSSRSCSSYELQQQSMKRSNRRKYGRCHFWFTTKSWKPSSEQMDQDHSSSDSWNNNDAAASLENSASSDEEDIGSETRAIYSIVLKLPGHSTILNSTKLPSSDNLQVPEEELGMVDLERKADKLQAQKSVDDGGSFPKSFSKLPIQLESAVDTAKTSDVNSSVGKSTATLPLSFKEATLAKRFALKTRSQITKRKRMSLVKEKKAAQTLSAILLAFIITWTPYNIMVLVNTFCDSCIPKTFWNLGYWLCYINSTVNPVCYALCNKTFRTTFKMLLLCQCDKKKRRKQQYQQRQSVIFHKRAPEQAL
T4 sequence (P41145 whole entry): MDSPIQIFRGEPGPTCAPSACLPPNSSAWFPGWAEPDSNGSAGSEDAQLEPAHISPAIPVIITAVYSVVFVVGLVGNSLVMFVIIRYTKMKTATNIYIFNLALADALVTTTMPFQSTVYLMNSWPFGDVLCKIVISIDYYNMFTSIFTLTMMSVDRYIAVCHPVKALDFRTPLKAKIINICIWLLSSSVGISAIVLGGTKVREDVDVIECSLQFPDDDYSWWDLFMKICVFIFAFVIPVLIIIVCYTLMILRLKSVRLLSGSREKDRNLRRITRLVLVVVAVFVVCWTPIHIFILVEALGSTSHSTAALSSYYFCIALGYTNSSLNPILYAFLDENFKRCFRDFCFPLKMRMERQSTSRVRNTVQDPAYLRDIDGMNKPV

CC(C)COc1ccc(CN2C(=O)OC3(CCN(C)CC3)C2Cc2ccc(F)cc2)cc1.Cl (racemic) [Example 69NLS75, 4-(4-Fluorobenzyl)-3-(4-isobutoxybenzyl)-8-methyl-1-oxa-3,8-diazaspiro[4.5]decan-2-one, hydrochloride]
> 3.16 µM: EC50 (m1) | EC50 (alpha 2B; agonist) | IC50 (alpha 2B; antagonist) | EC50 (m3; agonist) | IC50 (m3; inverse) | EC50 (oprk 1; agonist) | IC50 (oprk 1; antagonist) | EC50 (m2) | EC50 (alpha 2C; agonist) | IC50 (alpha 2C; antagonist)
